{"source": "paper PMC11477298", "about": "“Small Molecules Inducing Autophagic Degradation of Expanded Polyglutamine Protein through Interaction with Both Mutant ATXN3 and LC3” (International Journal of Molecular Sciences, 2024)", "format_in_all_cases": "cell-based, human", "key": {"[1]": {"assay": "MTT compound cytotoxicity assay", "conditions": "human, ATXN3-Q75-GFP SH-SY5Y cells, 0.1–100 μM compound, viability analyzed the next day, n = 3", "description": "For the compound cytotoxicity assay, ATXN3-Q75-GFP SY5Y cells (2 × 10^4) were plated into 96-well dishes, grown for 20 h, and treated with 0.1–100 μM test compounds. After 1 day, 3-(4,5-dimethylthiazol-2-yl)-2,5-diphenyltetrazolium bromide (MTT, 5 mg/mL) (Sigma-Aldrich, St. Louis, MO, USA) was added to the cells and incubated for 3 h at 37 °C. Lysis buffer (10% Triton X-100, 0.1 N HCl, 18% isopropanol) was then added to dissolve the insoluble formazan crystals. The absorbance of the purple-colored solution was measured at optical density (OD) 570 nm by using a FLx800 fluorescence microplate spectrophotometer (Bio-Tek, Winooski, VT, USA). The half-maximal inhibitory concentration (IC50) was calculated through the construction of a dose–response curve."}, "[2]": {"tested_on": "ATXN3-Q75-GFP SH-SY5Y cells", "assay": "Western blot of LC3-II:LC3-I ratio", "conditions": "uninduced = 100%, untreated induced 76%, range over trehalose and the four compounds", "description": "For the immunoblotting analysis, ATXN3-Q75-GFP SH-SY5Y cells were seeded in 6-well plates (3 × 10^5/well) and treated with retinoic acid, test compounds, and doxycycline, as described. On day 8, cells were collected and lysed in buffer (50 mM Tris-HCl pH 8.0, 150 mM NaCl, 2 mM EDTA pH 8.0, 0.1% SDS, 0.5% sodium deoxycholate, 1% NP-40) containing the protease inhibitor cocktail (Sigma-Aldrich). After sonication, the lysates were centrifuged (12,000× g for 10 min at 4 °C) and protein concentrations determined (Bradford protein assay; Bio-Rad, Hercules, CA, USA). Aliquots of protein (20 µg) were separated by electrophoresis using 12% SDS-polyacrylamide gel followed by transfer to a polyvinylidene fluoride membrane. After being blocked with 5% skim milk at 4 °C overnight, the membrane was stained with LC3 (1:1000; Medical & Biological Laboratories Co. #PM036, Tokyo, Japan) or GAPDH (glyceraldehyde 3-phosphate dehydrogenase) (1:1000, MDBio #30000002, Taipei, Taiwan) primary antibody at 4 °C overnight. The immune complexes were detected using HRP-conjugated goat anti-rabbit IgG antibody and chemiluminescent substrate, as described."}, "[3]": {"tested_on": "ATXN3-Q75-GFP SH-SY5Y cells", "assay": "High-content neurite outgrowth assay", "conditions": "for Neurite branch: untreated 1.16; for Neurite length: untreated 23.2 µm", "description": "(§1) ATXN3-Q75-GFP SH-SY5Y cells (5 × 10^4/well) were plated onto 24-well plates, with retinoic acid addition (10 µM; Sigma-Aldrich) on day 1 to initiate neuronal differentiation. On day 2, the cells were pretreated with disaccharide trehalose (10 mM, as a positive control) or the studied compounds (10 μM) for 8 h, followed by the addition of doxycycline (5 μg/mL, Sigma-Aldrich) to induce ATXN3-Q75-GFP expression. The cells were kept in the medium containing retinoic acid, the test compound, and doxycycline for 6 days, with the culture medium changed on day 5. ATXN3-Q75 aggregation and neurite outgrowth assays were performed on day 8 using a high-content imaging system (ImageXpress Micro Confocal; Molecular Devices).\nFor the aggregation assay, cells were stained with Hoechst 33342 (0.1 µg/mL; Sigma-Aldrich) at 37 °C for 30 min. Images of the cells were automatically obtained at excitation/emission wavelengths of 482/536 nm (FITC [fluorescein isothiocyanate] filter) for enhanced GFP and 377/447 nm (DAPI [4′,6-diamidino-2-phenylindole] filter) for nucleus counting. ATXN3-Q75 aggregation was determined by Transfluor technology based on GFP fluorescence intensity. For the neurite outgrowth assay, cells were fixed with 4% paraformaldehyde for 30 min, permeabilized with 0.1% Triton X-100 for 10 min, and blocked by non-specific binding with 3% bovine serum albumin for 20 min. The primary TUBB3 (neuronal class III β-tubulin) antibody (1:1000; BioLegend #802001, San Diego, CA, USA) was used to stain cells at 4 °C overnight, followed by Alexa Fluor 555-donkey anti-rabbit IgG secondary antibody (1:1000; Invitrogen #A-31572) staining for 2 h at room temperature. Nuclei were detected using DAPI (0.1 μg/mL; Sigma-Aldrich). Cell images were obtained at excitation/emission wavelengths of 531/593 nm (TRITC [tetramethylrhodamine] filter) for stained neurites and 377/447 nm (DAPI filter) for nuclei. To quantify neurite outgrowth, microscopic images were segmented with multi-colored masks to assign each outgrowth to a cell body for quantification. Neurite total length (μm) and numbers of process (primary neurites originating from neuronal cell body) and branch (secondary neurites extended from primary neurites) were analyzed (Neurite Outgrowth Application Module; Molecular Devices). In general, […] in each biological replicate were analyzed."}, "[4]": {"tested_on": "ATXN3-Q75-GFP SH-SY5Y cells", "assay": "Confocal microscopy of LC3 puncta, ATXN3-Q75 aggregates and P62 colocalization", "conditions": "range over trehalose and the four compounds; for Colocalization coefficient of ATXN3-Q75-GFP with LC3 puncta: untreated 0.014; for Colocalization coefficient of LC3 with P62: untreated 0.21; for LC3 puncta per cell: untreated induced 2.7", "description": "ATXN3-Q75-GFP SY5Y cells were seeded onto 12-well plates (1 × 10^5/well) containing poly-L-lysine-coated coverslip on day 1; treated with retinoic acid, test compounds, and doxycycline on day 2; and fixed, permeabilized, and blocked on day 8, as described. The primary anti-LC3 antibody (1:1000; Cell Signaling #83506, Danvers, MA, USA) or anti-P62 antibody (1:1500; Cell Signaling #5114) was used to stain cells at 4 °C overnight. After washing with PBS containing 0.1% Tween 20 (PBST), cells were incubated for 2 h at room temperature with Cy5-conjugated (1:1000, Jackson ImmunoResearch 715-175-150) or Alexa Fluor 555-conjugated (1:500; Invitrogen #A-31572) secondary antibody, and washed three times with PBST. Nuclei were detected using DAPI (0.1 μg/mL; Sigma-Aldrich). The stained cells on coverslips were mounted onto microscope slides with Vectashield antifade mounting medium (Vector Laboratories, Newark, CA, USA) and examined using a Zeiss LSM880 confocal microscope (Carl Zeiss AG, Oberkochen, Baden-Württemberg, Germany). Cell images were acquired at excitation/emission wavelengths of 649/666 nm, 482/536 nm, 555/582 nm, and 385/461 nm for stained LC3 puncta, aggregates, P62, and nuclei, respectively. For colocalization, 300 cells from three independent experiments were analyzed and quantified for the proportion of pixels that LC3 (red) colocalized with P62 (yellow) using Mander’s overlap coefficient (MOC) in ZEN software version 2.1 (Carl Zeiss AG)."}, "[5]": {"tested_on": "ATXN3-Q75-GFP SH-SY5Y cells", "assay": "High-content analysis of ATXN3-Q75 aggregation in cells", "conditions": "trehalose 10 mM; untreated induced cells 8.2%; day 8", "description": "as §1, with “ATXN3-Q75 aggregation and neurite outgrowth assays were performed on day 8 using a high-content imaging system (ImageXpress Micro Confocal; Molecular Devices).” left out\nFor the aggregation assay, cells were stained with Hoechst 33342 (0.1 µg/mL; Sigma-Aldrich) at 37 °C for 30 min. […] ATXN3-Q75 aggregation was determined by Transfluor technology based on GFP fluorescence intensity. […] Nuclei were detected using DAPI (0.1 μg/mL; Sigma-Aldrich). […] To quantify neurite outgrowth, microscopic images were segmented with multi-colored masks to assign each outgrowth to a cell body for quantification. Neurite total length (μm) and numbers of process (primary neurites originating from neuronal cell body) and branch (secondary neurites extended from primary neurites) were analyzed (Neurite Outgrowth Application Module; Molecular Devices). In general, 104 cells in each biological replicate were analyzed."}, "[6]": {"tested_on": "ATXN3-Q75-GFP SH-SY5Y cells", "assay": "Filter trap assay of cell lysates", "conditions": "trehalose 10 mM; without compound = 100%", "description": "The filter retardation assay was performed to quantify ATXN3-Q75 protein aggregates. The purified Trx-His-ATXN3-Q75 protein was incubated with test compounds (100 µM) at 37 °C for 2 days as described. In addition, proteins from compound-treated ATXN3-Q75-GFP SH-SY5Y cells were prepared (as described in Western blotting). Proteins (0.5 µg of biochemical reaction or 20 µg of cellular lysates) were diluted in 2% SDS in phosphate-buffered saline (PBS) and filtered through a cellulose acetate membrane (0.45-μm pore size; Sterlitech, Auburn, WA, USA) pre-equilibrated in 2% SDS in PBS on a dot-blot filtration apparatus (Bio-Rad Laboratories, Hercules, CA, USA). After washing with 2% SDS buffer, the membrane was blocked in PBS containing 5% skim milk at 4 °C overnight. Insoluble ATXN3-Q75 was probed with an anti-His tag (1:2000; OriGene #TA100013, Rockville, MD, USA) or anti-ATXN3 (1:1000; Invitrogen #PA5-26251) antibody. The immune complex on the filter was detected using horseradish peroxidase (HRP)-conjugated goat anti-mouse (#GTX213111-01) or goat anti-rabbit (#GTX213110-01) immunoglobulin G (IgG) antibody (1:5000; GeneTex, Irvine, CA, USA) and a chemiluminescent HRP substrate (Millipore, Billerica, MA, USA). The chemiluminescent signals were captured with an ImageQuant LAS 4000 (GE Healthcare, Chicago, IL, USA) and quantified (Multi Gauge V3.0 software, Fujifilm, Tokyo, Japan). […]"}, "[7]": {"conditions": "compound 10 µM, range over the four named compounds"}}, "data": [{"compound": "O=C(/C=C/c1ccco1)c1c(O)c2ccccc2oc1=O", "note": "[LM-022]", "values": [{"measurement": "IC50 at 1 day", "setting": "[1]", "value": 102, "unit": "µM"}]}, {"compound": "CC(=O)/C(=C\\c1ccccc1[N+](=O)[O-])Cc1c(-c2ccccc2)[nH]c2ccccc12", "note": "[NC009-3]", "values": [{"measurement": "IC50 at 1 day", "setting": "[1]", "value": "> 100", "unit": "µM"}]}, {"compound": "CCc1cccc2c(C/C(=C/c3ccccc3[N+](=O)[O-])C(C)=O)c[nH]c12", "note": "[NC009-6]", "values": [{"measurement": "Relative LC3-II:LC3-I ratio", "setting": "[2]; compound 10 μM", "value": "102–124%"}, {"measurement": "IC50 at 1 day", "setting": "[1]", "value": 176, "unit": "µM"}, {"measurement": "Neurite branch", "setting": "[3]; [7]", "value": "1.34–1.37"}, {"measurement": "Neurite process", "setting": "[3]; compound 10 µM, untreated 2.41, range over the four named compounds", "value": "2.55–2.57"}, {"measurement": "Neurite length", "setting": "[3]; [7]", "value": "26.1–26.9 µm"}, {"measurement": "Colocalization coefficient of ATXN3-Q75-GFP with LC3 puncta", "setting": "[4]; compound 10 μM", "value": "0.025–0.030"}, {"measurement": "Colocalization coefficient of LC3 with P62", "setting": "[4]; compound 10 μM", "value": "0.26–0.29"}, {"measurement": "LC3 puncta per cell", "setting": "[4]; compound 10 μM", "value": "4.6–6.7"}]}, {"compound": "OC[C@H]1O[C@H](O[C@H]2O[C@H](CO)[C@@H](O)[C@H](O)[C@H]2O)[C@H](O)[C@@H](O)[C@@H]1O", "note": "[trehalose, reference compound]", "values": [{"measurement": "Relative LC3-II:LC3-I ratio", "setting": "[2]; trehalose 10 mM", "value": "102–124%"}, {"measurement": "Percentage of aggregated cells", "setting": "[5]", "value": 7.4, "unit": "%"}, {"measurement": "Neurite branch", "setting": "[3]; trehalose 10 mM", "value": 1.31}, {"measurement": "Neurite length", "setting": "[3]; trehalose 10 mM", "value": 25.5, "unit": "µm"}, {"measurement": "Insoluble aggregated proteins in cell lysates (filter trap)", "setting": "[6]", "value": 45, "unit": "%"}, {"measurement": "Colocalization coefficient of ATXN3-Q75-GFP with LC3 puncta", "setting": "[4]; trehalose 10 mM", "value": "0.025–0.030"}, {"measurement": "Colocalization coefficient of LC3 with P62", "setting": "[4]; trehalose 10 mM", "value": "0.26–0.29"}, {"measurement": "LC3 puncta per cell", "setting": "[4]; trehalose 10 mM", "value": "4.6–6.7"}]}]}
